Several values for one entry are separate records, joined by “and”; a condition that tells them apart may be missing. Equal values may be shown once.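 Values below derive from 48-hour exposures of cells grown in 96-well plates, with endpoints linearly interpolated between the two concentrations bracketing the appropriate inhibition level. GI50 = concentration required for 50% inhibition of growth. TGI marks complete inhibition of growth.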
Experiments:
Assay in all cases: NCI-60 cell line screen, 48 h
OVCAR-8 ovarian = test system: OVCAR-8 ovarian
SN12C renal = test system: SN12C renal
SW-620 colon = test system: SW-620 colon
HCT-15 colon = test system: HCT-15 colon
SNB-75 CNS = test system: SNB-75 CNS
OVCAR-4 ovarian = test system: OVCAR-4 ovarian
K-562 leukemia = test system: K-562 leukemia
UACC-62 melanoma = test system: UACC-62 melanoma
IGROV1 ovarian = test system: IGROV1 ovarian
HCC-2998 colon = test system: HCC-2998 colon

Compound	GI50 (OVCAR-8 ovarian) [µM]	TGI (OVCAR-8 ovarian)	GI50 (SN12C renal) [µM]	TGI (SN12C renal)	GI50 (SW-620 colon) [µM]	TGI (SW-620 colon)	GI50 (HCT-15 colon) [µM]	TGI (HCT-15 colon) [µM]	GI50 (SNB-75 CNS) [µM]	TGI (SNB-75 CNS)	GI50 (OVCAR-4 ovarian) [µM]	TGI (OVCAR-4 ovarian) [µM]	GI50 (K-562 leukemia) [µM]	TGI (K-562 leukemia)	GI50 (UACC-62 melanoma) [µM]	TGI (UACC-62 melanoma)	GI50 (IGROV1 ovarian) [µM]	TGI (IGROV1 ovarian) [µM]	TGI (HCC-2998 colon)	GI50 (HCC-2998 colon) [µM]
CCN(CC)c1ccc2nc3c4ccccc4c(=O)cc-3n(-c3ccccc3)c2c1	1.75	5.11 µM	2.72	40.2 µM	2.89	13.6 µM	2.1	49.3	2.34	12.7 µM	1.2	15.1	2.41	> 100 µM	1.36	4.31 µM	0.62	2.92		
COc1cccc2nc3ccccc3nc12		69.1 µM		> 100 µM		> 100 µM		> 100		> 100 µM				> 100 µM		> 100 µM			> 100 µM	
CC[C@]1(O)CC2CN(CCc3c([nH]c4ccccc34)[C@@](C(=O)OC)(c3cc4c(cc3OC)N(C=O)[C@H]3[C@@](O)(C(=O)OC)[C@H](OC(C)=O)[C@]5(CC)C=CCN6CC[C@]43[C@@H]65)C2)C1 (some centres not stated)	0.00828	> 50 µM	< 0.005	> 50 µM	< 0.005	> 50 µM		> 50			0.00653	> 50	< 0.005	> 50 µM	< 0.005	> 50 µM	0.0334	> 50		< 0.005
O=C(CO[N+](=O)[O-])OC/C=C/c1ccccc1		> 100 µM		> 100 µM		> 100 µM		> 100		> 100 µM				> 100 µM				> 100	> 100 µM	
CN(NC1OC(CO)C(O)C(O)C1O)c1ccccc1 (configuration not stated)		> 100 µM				> 100 µM		> 100				> 100		> 100 µM		> 100 µM		> 100	> 100 µM	
O=C(N/C(=C\c1ccccc1Cl)c1nc2ccccc2[nH]1)c1ccccc1		> 100 µM		61.5 µM		> 100 µM		> 100				> 100		> 100 µM		> 100 µM		> 100	91 µM	
c1ccc(-c2n(Cc3ccc4ccccc4c3)cc[n+]2Cc2ccc3ccccc3c2)cc1			1.26	2.64 µM	1.08	2.48 µM	1.79	3.46	1.16	2.58 µM					0.447	1.73 µM	0.651	2.13		
Clc1ccc2ncc(-c3cccc(NC4CNC4)n3)n2c1	3.92	84.3 µM	1.58	> 100 µM	2.92	15.8 µM	5.39	> 100	10.6	27.8 µM			8.9	> 100 µM	10.2	27.3 µM	4.57	44.6	68.2 µM	12.9
COc1ccccc1/C=C/C1=C(C)CCC(c2ccccc2OC)C1C (configuration not stated)	0.137		0.323	> 100 µM	0.138	> 100 µM	0.129	> 100	0.131	76.5 µM	1.37	> 100			0.0684	40.3 µM	0.132	> 63.5	1.56 µM	0.249
N#Cc1ccccc1C#C/C=C\C#CC#C/C=C\C#Cc1ccccc1C#N	47.6	> 100 µM			9.1	> 100 µM	12.7	> 100			19.1	> 100			14.7	40.6 µM	15	91.6		
C(=Nc1cnc2ccccc2c1)c1ccc2ccccc2n1		> 100 µM		> 100 µM		> 100 µM		> 100		> 100 µM		> 100		> 100 µM		> 100 µM		> 100		
O=C(/C=C/C(Cl)(Cl)Cl)Nc1ccc(Cl)cc1		> 77.6 µM		25.8 µM		14 µM		11.4		11.1 µM		4.02				21.2 µM		1.82	14.5 µM	
CC(=O)OCC1OC(OCc2ccccc2)C(Br)C(OC(C)=O)C1OC(C)=O (configuration not stated)		> 100 µM		> 100 µM		> 100 µM		> 100				> 100		> 100 µM		> 100 µM		> 100	> 100 µM	
CC(C)N(C(=O)C12C3C4C1C1C2C3C41I)C(C)C (configuration not stated)		> 100 µM		> 100 µM		> 100 µM				> 100 µM		> 100		> 100 µM		> 100 µM		> 100	> 100 µM	
O=C(O)c1c(Cl)c(Cl)c(Cl)c(Cl)c1C(=O)Nc1ccc2cn[nH]c2c1		> 100 µM		> 100 µM		> 100 µM		> 100		> 100 µM		> 100		> 100 µM		> 100 µM		> 100		
COC1OC(CBr)C(OC(=O)c2ccccc2)C(OS(=O)(=O)c2ccc(C)cc2)C1Br (configuration not stated)		> 100 µM		> 100 µM		> 100 µM		> 100				> 100		> 100 µM					> 100 µM	
COC(=O)C1(C)CC2C(C)(CCC3(C)C4=CC=C5C(=CC(=O)C(O)=C5C)C4(C)CCC23C)CC1O (configuration not stated)		2.38 µM		3.33 µM						3.54 µM		3.4				2.32 µM		1.18	2.9 µM	
O=C1c2ccccc2C(=O)c2c1ccc1c(=O)n(-c3ccccc3C(F)(F)F)nnc21	2.49	> 100 µM	2.23	28.9 µM	3.43	> 100 µM			1.56	15.5 µM	1	2.21	1.76	> 100 µM	1.52	3.21 µM	1.33	3.31	6.16 µM	2.45
Cc1ccc(-c2nc3cc(Cl)c(Cl)cc3nc2C#N)cc1	> 100	> 100 µM	> 100	> 100 µM	> 100	> 100 µM	> 100	> 100	> 100	> 100 µM	> 100	> 100	> 100	> 100 µM	> 100	> 100 µM	> 100	> 100		
CN(C)CCn1cnc2ncccc2c1=O		> 100 µM		> 100 µM		> 100 µM				> 100 µM		> 100		> 100 µM		> 100 µM		> 100	> 100 µM	
COc1c(O)cc2c(c1O)C(=O)C1=C(CCCC1)C2=O		57.5 µM		58.3 µM		> 100 µM		> 100				95.6				48.8 µM		43.8	47.7 µM	
COc1cc(-c2ccc(NC(=O)SCCC(=O)O)cc2OC)ccc1NC(=O)SCCC(=O)O		> 100 µM		> 100 µM		> 100 µM		> 100		> 100 µM		> 100		> 100 µM						
NC(Cc1c[nH]c2ccc(F)cc12)C(=O)O (configuration not stated)	751	> 2500 µM	918	> 2500 µM	1170	> 2500 µM	1180	> 2500	489	1390 µM	953	> 2500	887	> 2500 µM	755	> 2500 µM			> 2500 µM	1810
CC(=O)OC(C)(C)/C=C/C(=O)[C@](C)(O)[C@H]1[C@H](O)C[C@@]2(C)[C@@H]3CC=C4[C@@H](C=C(O)C(=O)C4(C)C)[C@]3(C)C(=O)C[C@]12C		5.35 µM and 2.14 µM and 3.28 µM		3.34 µM and 1.52 µM and 0.938 µM		7.04 µM and 1.26 µM and 3.48 µM				42.7 nM [middle of 4 runs]				4.97 µM and 9.17 µM and 14 µM		1.56 µM and 0.806 µM and 1.17 µM			1.56 µM and 0.542 µM and 0.962 µM	
CCOC(=O)C(NO)C(Sc1ccccc1)c1ccc(OC)cc1 (configuration not stated)		> 100 µM		> 100 µM		> 100 µM		> 100		> 100 µM						> 100 µM		> 100	> 100 µM	
C/C(=N\n1c(O)c(C#N)cc(C#N)c1=O)c1ccncc1	> 100	> 100 µM	> 100	> 100 µM	> 100	> 100 µM	> 100	> 100					> 100	> 100 µM	> 100	> 100 µM	> 100	> 100	> 100 µM	> 100
CC1CCC(=O)C(C(O)CC2CC(=O)N(c3ccccc3)C(=O)C2)C1 (configuration not stated)		> 100 µM		> 100 µM		> 100 µM				> 100 µM		> 100		> 100 µM		> 100 µM		> 100	> 100 µM	
O=C(CCl)Nc1cc(Cl)c(Cl)cc1Cl		3.1 µM		2.96 µM		5.72 µM		4.3				4.06		> 10 µM		3.59 µM		3.3	> 10 µM	

— PubChem BioAssay (NCI)
